Test results as given in US20090047701A1, “METHOD FOR SCREENING ANTIFUNGAL AGENTS” (STICHTING VOOR DE TECHNISCHE, priority 2004, published 2009).

Tests used:
Type in all cases: cell-based, Aspergillus niger
ΔrlmA strain = assay: microtiter plate based growth assay: sensitivity of the ΔrlmA strain versus wild-type (N402); settings: spores in Complete medium, 37° C., 96-well plates, various concentrations, ΔrlmA vs N402 (FIG. 4)
Method: Sensitivity of the ΔrlmA strain towards different compounds. Growth curves of wild-type (N402) and ΔrlmA strains. Spores were grown in Complete medium for 24 hrs at 37° C. in the presence of various concentrations of antifungals. Data are represented as the mean and standard error of the mean obtained from four replicates. The dotted line with open squares represents the growth curve of the rlmA deletion strain and the solid line with closed circles represent the parental (N402) strain.
Sensitivity towards various compounds was assayed in 96-well microtiter plates (Nunc, art. 164588) using a Perkin Elmer HTS-7000 Bioassay reader. A series of concentrations of stress-inducing compounds (CFW, Caspofungin, Hydrogen-peroxide, SDS) were prepared in 100 μl milliq in a 96-well plate, and 100 μl spore solution (˜2×10^4 spores) in 2× complete medium was added to 100 μl stress-inducing solution. The microtiter plates were incubated at 37° C. and the OD590 was measured every 2 hours.
The sensitivity of the wild-type and the ΔrlmA strain towards various compounds was also measured by determining fungal growth in a microtiter plate based growth assay.

agsA [1] = assay: Northern analysis of agsA expression after CFW-induced cell wall stress, wild-type strain (N402); settings: wild-type N402 germlings, 200 μg/ml CFW, RNA at 0, 15, 30, 45 and 60 minutes (FIG. 3)
Method: (§1) Cell wall integrity response in the wild-type (N402) and the ΔrlmA strain. Northern analysis of the agsA, and 18S messenger levels. Strains were grown in shake flask until small germ tubes were formed. Subsequently CFW (+) or an equal volume of water (−) was added to the cultures. RNA was extracted at the timepoints indicated above the Northerns, t=time in minutes. The probes used; for agsA a ˜0.6 kb EcoRI agsA fragment was isolated from pGEMT-agsA (Damveld et al, unpublished vector); the 18S ribosomal probe was isolated as a 2 kb BglI fragment from pMN1 (Borsuk et al., 1982 Gene 17, 147-152.)
(§2) Chromosomal DNA of A. niger was isolated as described by Kolar (Kolar et al., 1988, Gene 62, 127-134). Alternatively, chromosomal DNA was isolated using the FastPrep FP120 (Bio101). First, A. niger spores were grown in Fast-prep tubes containing 1 ml CM and 0.3 gram acid washed glass beads. […] Sequencing was carried out with a Perkin Elmer ABI PRISM 310 sequencer using the ABI prism Big Dye Terminator Cycle Sequencing Ready Reaction Kit (Applied Biosystems). […]
(§3) To determine the role of A. niger RlmA in the activation of agsA in response to cell wall stress, the expression of agsA was analysed in both the wild-type strain (N402) and the rlmA deletion strain (ΔrlmA) after CFW treatment. […]

agsA [2] = assay: Northern analysis of agsA expression after CFW-induced cell wall stress, rlmA deletion strain (ΔrlmA); settings: ΔrlmA germlings, 200 μg/ml CFW, RNA at 0, 15, 30, 45 and 60 minutes (FIG. 3)
Method: as §1, §2, §3

| Compound | Sensitivity of the ΔrlmA strain towards the compound in comparison to the wild-type strain (fungal growth, OD590) (ΔrlmA strain) | expression level of the agsA gene after CFW addition (agsA [1]) | agsA mRNA in the ΔrlmA strain after treatment with CFW (agsA [2]) |
| --- | --- | --- | --- |
| O=S(=O)(O)c1cc(Nc2nc(Nc3ccccc3)nc(N(CCO)CCO)n2)ccc1/C=C/c1ccc(Nc2nc(Nc3ccccc3)nc(N(CCO)CCO)n2)cc1S(=O)(=O)O [CFW, Calcofluor White] | hypersensitive phenotype | already induced 15 minutes after CFW addition | no agsA mRNA could be detected |
| CC[C@H](C)C[C@H](C)CCCCCCCCC(=O)N[C@H]1C[C@@H](O)[C@@H](NCCN)NC(=O)[C@@H]2[C@@H](O)CCN2C(=O)[C@H]([C@H](O)CCN)NC(=O)[C@H]([C@H](O)[C@@H](O)c2ccc(O)cc2)NC(=O)[C@@H]2C[C@@H](O)CN2C(=O)[C@H]([C@@H](C)O)NC1=O [Caspofungin] | slightly, but reproducible enhanced | – | – |
| OO [H2O2, Hydrogen-peroxide] | no hypersensitive phenotype | – | – |
| CCCCCCCCCCCCOS(=O)(=O)[O-].[Na+] [SDS] | hypersensitive phenotype | – | – |
| CCCCNC(=O)n1c(NC(=O)OC)nc2ccccc21 [benomyl] | slightly, but reproducible enhanced | – | – |
| tunicamycin | slightly, but reproducible enhanced | – | – |
